Test results as given in US10059741B2 (priority 2015, dated 2018).
Where two headings read alike, the source gives them in different places. Bridge positions count the residues as written; N and C are the ends. Square brackets hold non-standard residues; d marks the D form. Peptide text beside a SMILES is read from it. S5 = C=CCCC[C@](C)(N)C(=O)O; Nle = CCCC[C@H](N)C(=O)O; Aib = CC(C)(N)C(=O)O

What was measured:
H1N1 California/07/2009 [1] = assay: microbe, parasite or virus in culture; format: cell-based, influenza A virus
H3N2 Perth/16/2009 [2] = assay: microbe, parasite or virus in culture; format: cell-based, influenza A virus; details: read-out: EC50 (μM) H3N2 Perth/16/2009
H1N1 California/07/2009 [3] = assay: microbe, parasite or virus in culture; format: cell-based, influenza A virus; remark: listed apart in the source
H3N2 Perth/16/2009 [4] = assay: microbe, parasite or virus in culture; format: cell-based, influenza A virus; details: read-out: EC50 (μM) H3N2 Perth/16/2009; remark: listed apart in the source
in vitro = details: dog
[5] = read-out: EC50 (μM) H1N1 California/07/2009
[6] = CC50 (μM) H1N1 California/07/2009, Cell cytotoxicity (CC), run with H1N1 California/07/2009
[7] = CC50 (μM) H3N2 Perth/16/2009, Cell cytotoxicity (CC), run with H3N2 Perth/16/2009
[8] = CC50, MDCK cells, run with Influenza A H1N1 California/07/2009, Neutral Red
[9] = CC50, MDCK cells, run with Influenza A H1N1 California/07/2009, Visual
[10] = CC50, run with Influenza A H1N1 California/07/2009, Neutral Red
[11] = CC50, run with Influenza A H1N1 California/07/2009, Visual
[12] = CC50, run with Influenza A H3N2 Perth/16/2006 (so in the source), Neutral Red
[13] = CC50, run with Influenza A H3N2 Perth/16/2006 (so in the source), Visual

| SMILES | EC50 (H1N1 California/07/2009 [1]; [5]) | EC50 (H3N2 Perth/16/2009 [2]) | EC50 (H1N1 California/07/2009 [3]; [5]) | EC50 (H3N2 Perth/16/2009 [4]) | CC50 (in vitro; [6]) | CC50 (in vitro; [7]) | CC50 (in vitro; [8]) | CC50 (in vitro; [9]) | CC50 (in vitro; [10]) | CC50 (in vitro; [11]) | CC50 (in vitro; [12]) | CC50 (in vitro; [13]) | EC50 (H1N1 California/07/2009 [1]; read-out: EC50) | EC50 (H1N1 California/07/2009 [3]; read-out: EC50) |
| --- | --- | --- | --- | --- | --- | --- | --- | --- | --- | --- | --- | --- | --- | --- |
| CCCC[C@H](NC(C)=O)C(=O)N[C@@H](CC(=O)O)C(=O)N[C@H](C(=O)N[C@@H](CC(N)=O)C(=O)N[C@@]1(C)CCCC=CCCC[C@@](C)(C(=O)N[C@@H](CC(C)C)C(=O)N[C@@H](C)C(=O)N[C@H](C(=O)NC(C)(C)C(=O)N[C@@H](C)C(=O)N[C@@H](CCC(N)=O)C(=O)N[C@@H](C)C(=O)N[C@@H](C)C(N)=O)C(C)C)NC(=O)[C@H](CC(C)C)NC(=O)[C@H](CC(C)C)NC(=O)[C@H]([C@@H](C)O)NC1=O)C(C)C [SP-7] (Ac-[Nle]DVN[S5]TLL[S5]LAV[Aib]AQAA-NH2; staple 5-9) | 10 to 25 µM | 25 to 50 µM | 10 to 25 µM | 25 to 50 µM | > 100 µM | > 100 µM | > 100 µM | > 100 µM |  |  |  |  |  |  |
| CCCC[C@H](NC(C)=O)C(=O)N[C@@H](CC(=O)O)C(=O)N[C@H](C(=O)N[C@@H](CC(N)=O)C(=O)N[C@@]1(C)CCCC=CCCC[C@@](C)(C(=O)N[C@@H](CC(C)C)C(=O)N[C@@H](C)C(=O)N[C@H](C(=O)NC(C)(C)C(=O)N[C@@H](C)C(=O)N[C@@H](CCC(N)=O)C(=O)N[C@@H](C)C(=O)N[C@H](C)C(N)=O)C(C)C)NC(=O)[C@H](CC(C)C)NC(=O)[C@H](CC(C)C)NC(=O)[C@H]([C@@H](C)O)NC1=O)C(C)C [SP-16] (Ac-[Nle]DVN[S5]TLL[S5]LAV[Aib]AQA[dA]-NH2; staple 5-9) | 10 to 25 µM | 25 to 50 µM | 10 to 25 µM | 25 to 50 µM | > 100 µM | > 100 µM | > 100 µM | > 100 µM |  |  |  |  |  |  |
| CCCC[C@H](NC(C)=O)C(=O)N[C@@H](CC(=O)O)C(=O)N[C@H](C(=O)N[C@@H](CC(N)=O)C(=O)N[C@@]1(C)CCCC=CCCC[C@@](C)(C(=O)N[C@@H](CC(C)C)C(=O)N[C@@H](C)C(=O)N[C@H](C(=O)NC(C)(C)C(=O)N[C@@H](C)C(=O)N[C@@H](CCC(N)=O)C(=O)N[C@@H](C)C(=O)N[C@H](C)C(=O)O)C(C)C)NC(=O)[C@H](CC(C)C)NC(=O)[C@H](CC(C)C)NC(=O)[C@H]([C@@H](C)O)NC1=O)C(C)C [SP-17] (Ac-[Nle]DVN[S5]TLL[S5]LAV[Aib]AQA[dA]-OH; staple 5-9) | 25 to 50 µM | 10 to 25 µM | 25 to 50 µM | 10 to 25 µM | > 100 µM | > 100 µM | > 100 µM | > 100 µM |  |  |  |  |  |  |
| CCCC[C@H](NC(C)=O)C(=O)N[C@@H](CC(=O)O)C(=O)N[C@H](C(=O)N[C@@H](CC(N)=O)C(=O)N[C@@]1(C)CCCC=CCCC[C@@](C)(C(=O)N[C@@H](CC(C)C)C(=O)N[C@@H](C)C(=O)N[C@H](C(=O)N[C@@H](CCC(N)=O)C(=O)NC(C)(C)C(=O)N[C@@H](CCC(N)=O)C(=O)N[C@@H](C)C(=O)N[C@@H](C)C(N)=O)C(C)C)NC(=O)[C@H](CC(C)C)NC(=O)[C@H](CC(C)C)NC(=O)[C@H]([C@@H](C)O)NC1=O)C(C)C [SP-19] (Ac-[Nle]DVN[S5]TLL[S5]LAVQ[Aib]QAA-NH2; staple 5-9) | 1.5 to 10 µM | 1.5 to 10 µM | 1.5 to 10 µM | 1.5 to 10 µM | > 100 µM | > 100 µM |  |  | > 100 µM | > 100 µM | > 100 µM | > 100 µM |  |  |
| CCCC[C@H](NC(C)=O)C(=O)N[C@@H](CC(=O)O)C(=O)N[C@H](C(=O)N[C@@H](CC(N)=O)C(=O)N[C@@]1(C)CCCC=CCCC[C@@](C)(C(=O)N[C@@H](CC(C)C)C(=O)N[C@@H](C)C(=O)N[C@H](C(=O)N[C@@H](CCC(N)=O)C(=O)N[C@@H](C)C(=O)N[C@@H](CCC(N)=O)C(=O)NC(C)(C)C(=O)N[C@@H](C)C(N)=O)C(C)C)NC(=O)[C@H](CC(C)C)NC(=O)[C@H](CC(C)C)NC(=O)[C@H]([C@@H](C)O)NC1=O)C(C)C [SP-20] (Ac-[Nle]DVN[S5]TLL[S5]LAVQAQ[Aib]A-NH2; staple 5-9) | 10 to 25 µM | 1.5 to 10 µM | 25 to 50 µM | 1.5 to 10 µM | > 100 µM | > 100 µM |  |  | > 100 µM | > 100 µM | > 100 µM | > 100 µM |  |  |
| CCCC[C@H](NC(C)=O)C(=O)N[C@@H](CC(=O)O)C(=O)N[C@H](C(=O)N[C@@H](CC(N)=O)C(=O)N[C@@]1(C)CCCC=CCCC[C@@](C)(C(=O)N[C@@H](CC(C)C)C(=O)N[C@@H](C)C(=O)N[C@H](C(=O)N[C@@H](CCC(N)=O)C(=O)N[C@@H](C)C(=O)NC(C)(C)C(=O)N[C@@H](C)C(=O)N[C@@H](C)C(N)=O)C(C)C)NC(=O)[C@H](CC(C)C)NC(=O)[C@H](CC(C)C)NC(=O)[C@H]([C@@H](C)O)NC1=O)C(C)C [SP-23] (Ac-[Nle]DVN[S5]TLL[S5]LAVQA[Aib]AA-NH2; staple 5-9) | 1.5 to 10 µM | 1.5 to 10 µM | 1.5 to 10 µM | 1.5 to 10 µM | > 100 µM | > 100 µM |  |  | > 100 µM | > 100 µM | > 100 µM | > 100 µM | 4.3 µM | 4.2 µM |
